# Experimental data from ChEMBL document CHEMBL2203255, “Nerve growth factor-potentiating benzofuran derivatives from the medicinal fungus Phellinus ribis” (J Nat Prod, 2012).
# The source made the active and inactive calls. No cut-off for these calls is given here.
# Test system: PC-12
# Experiment: Neuritogenic activity in rat PC12 cells assessed as potentiation of NGF-induced neurite outgrowth at 1 to 30 uM after 4 days by phase-contrast microscopy in presence of 1 ng/ml NGF
# Format: functional, cell-based
row,Structure (SMILES),Activity
1,CO[C@@H]1[C@H](OC)C(=O)c2c(oc3ccccc23)[C@@H]1O,Active
2,CO[C@@H]1C(=O)c2c(oc3ccccc23)[C@H](O)[C@H]1O,Active
3,CO[C@H]1[C@H](OC)C(=O)c2c(oc3c(O)cccc23)[C@@H]1O,Active
4,CO[C@H]1[C@H](O)c2oc3ccccc3c2C(=O)[C@@H]1OC,Active
